pIC50: −log10 of the molar value. ≈ marks a conversion by molar mass, not a printed value. Calls of active or inactive are those of the source. No cut-off for these calls is given here.
Assays:
Enterococcus faecium = assay: Antibacterial activity against Enterococcus faecium EF16M64 assessed as reduction in visible bacterial growth incubated for 16 to 20 hrs by microdilution broth assay; assay type: functional; details: time 16-20 hrs
Enterococcus faecalis [1] = assay: Antibacterial activity against Enterococcus faecalis ATCC 29212 assessed as reduction in visible bacterial growth incubated for 16 to 20 hrs by microdilution broth assay; assay type: functional; details: time 16-20 hrs
[2] = Inhibition of Enterococcus faecalis OG1RF YycG autophosphorylation by Kinase-Glo luminescent kinase assay
Enterococcus faecalis [3] = assay: Antimicrobial activity against Enterococcus faecalis OG1RF assessed as reduction in visible bacterial growth incubated for 16 to 20 hrs by microdilution broth assay; assay type: functional; details: time 16-20 hrs
Enterococcus faecalis [4] = assay: Antibiofilm activity against Enterococcus faecalis FB-1 assessed as inhibition of biofilm maturation measured after 24 hr; assay type: functional, organism-based
Enterococcus faecalis [5] = assay: Antibacterial activity against Enterococcus faecalis OG1RF assessed as reduction in visible bacterial growth incubated for 16 to 20 hrs by microdilution broth assay; assay type: functional; details: time 16-20 hrs
[6] = system: Staphylococcus epidermidis; assay: Antibacterial activity against Staphylococcus epidermidis ATCC 35984 assessed as reduction in visible bacterial growth incubated for 16 to 20 hrs by microdilution broth assay; assay type: functional; details: time 16-20 hrs
Enterococcus faecalis [7] = assay: Antibacterial activity against Enterococcus faecalis FB-1 assessed as reduction in visible bacterial growth incubated for 16 to 20 hrs by microdilution broth assay; assay type: functional; details: time 16-20 hrs
Enterococcus faecalis [8] = assay: Bacteriostatic activity against planktonic cells of Enterococcus faecalis OG1RF measured by microdilution broth assay; assay type: functional, organism-based
Staphylococcus aureus [9] = assay: Antibacterial activity against Staphylococcus aureus ATCC 29213 assessed as reduction in visible bacterial growth incubated for 16 to 20 hrs by microdilution broth assay; assay type: functional; details: time 16-20 hrs
[10] = Cytotoxicity against african green monkey Vero cells assessed as inhibition of cell growth by MTT assay; assay type: cell-based; details: chlorocebus sabaeus
Escherichia coli = assay: Antibacterial activity against Escherichia coli […] assessed as reduction in visible bacterial growth incubated for 16 to 20 hrs by microdilution broth assay; assay type: functional; details: time 16-20 hrs
[11] = Hemolytic activity against human erythrocytes at 50 uM incubated for 1 hr at 570 nm by spectrophotometry; assay type: ADME, tissue-based, Erythrocyte; details: read-out: Activity
Enterococcus faecalis [12] = assay: Antibiofilm activity against Enterococcus faecalis FB-1 assessed as eradication of mature biofilm by semiquantitative microtiter assay; assay type: functional, organism-based
Staphylococcus aureus [13] = assay: Antibacterial activity against Staphylococcus aureus ATCC 35556 assessed as reduction in visible bacterial growth incubated for 16 to 20 hrs by microdilution broth assay; assay type: functional; details: time 16-20 hrs
Enterococcus faecalis [14] = assay: Inhibition of biofilm formation of Enterococcus faecalis FB-1 assessed as inhibitory rate of formation at 100 uM for 24 hrs measured at 570 nm by crystal violet staining based spectrophotometry; assay type: functional
Streptococcus agalactiae = assay: Antibacterial activity against Streptococcus agalactiae NSGC64 assessed as reduction in visible bacterial growth incubated for 16 to 20 hrs by microdilution broth assay; assay type: functional; details: time 16-20 hrs
Enterococcus faecalis [15] = assay: Bactericidal activity against Enterococcus faecalis OG1RF assessed as reduction in bacterial colonies incubated for 16 to 20 hrs by microdilution broth analysis; assay type: functional; details: time 16-20 hrs, read-out: MBC99.9
[16] = Hemolytic activity against human erythrocytes at 200 uM incubated for 1 hr at 570 nm by spectrophotometry; assay type: ADME, tissue-based, Erythrocyte; details: read-out: Activity
Enterococcus faecalis [17] = assay: Antibiofilm activity against Enterococcus faecalis FB-1 assessed as inhibition of biofilm infection at 25 uM by fluid shear system; assay type: functional, organism-based
[18] = system: Staphylococcus epidermidis; assay: Antibacterial activity against Staphylococcus epidermidis ATCC 12228 assessed as reduction in visible bacterial growth incubated for 16 to 20 hrs by microdilution broth assay; assay type: functional; details: time 16-20 hrs
Enterococcus faecalis [19] = assay: Antibiofilm activity against Enterococcus faecalis assessed as reduction in amount of viable biofilm-embedded bacterial cells at 50 uM measured by YTO 9/PI staining followed by confocal laser scanning microscopy; assay type: functional
Enterococcus faecalis [20] = assay: Effect on initial adhesion capacity of Enterococcus faecalis assessed as attached cells at 25 uM for 6 hrs by crystal violet staining based microscopic assay (reference value: 0.412); assay type: functional
Enterococcus faecalis [21] = assay: Bactericidal activity against Enterococcus faecalis OG1RF assessed as reductions in colony forming unit in presence of ampicillin within 3 hrs by time-killing assay; assay type: functional, organism-based
Enterococcus faecalis [22] = assay: Antibiofilm activity against Enterococcus faecalis assessed as fold reduction in yycG gene expression at 25 uM incubated for 6 hrs by qRT-PCR analysis; assay type: functional
Enterococcus faecalis [23] = assay: Antibiofilm activity against Enterococcus faecalis assessed as fold reduction in sprE gene expression at 25 uM incubated for 6 hrs by qRT-PCR analysis; assay type: functional
Enterococcus faecalis [24] = assay: Antibiofilm activity against Enterococcus faecalis assessed as fold reduction in yycF gene expression at 25 uM incubated for 6 hrs by qRT-PCR analysis; assay type: functional
Enterococcus faecalis [25] = assay: Antibiofilm activity against Enterococcus faecalis assessed as fold reduction in […] gene expression at 25 uM incubated for 6 hrs by qRT-PCR analysis; assay type: functional
Enterococcus faecalis [26] = assay: Bactericidal activity against Enterococcus faecalis OG1RF assessed as reductions in colony forming unit in presence of ampicillin after 24 hrs by time-killing assay; assay type: functional, organism-based
Enterococcus faecalis [27] = assay: Bactericidal activity against Enterococcus faecalis OG1RF assessed as reductions in colony forming unit in presence of linezolid after 24 hrs by time-killing assay; assay type: functional, organism-based
Enterococcus faecalis [28] = assay: Antibiofilm activity against Enterococcus faecalis assessed as inhibition of biofilm at 1/2 times of MIC incubated for 24 hrs; assay type: functional; set-up: scale not given: the % may be the effect or the level left
Enterococcus faecalis [29] = assay: Antibacterial activity against clinical strain Enterococcus faecalis assessed as inhibition of bacterial growth; assay type: functional
Enterococcus faecalis [30] = assay: Antibacterial activity against ATc induced Enterococcus faecalis OG1RF-asryycG silencing strain assessed as fold reduction in MIC relative to wild type; assay type: functional
Enterococcus faecalis [31] = assay: Antibacterial activity against clinical strain vancomycin-resistant Enterococcus faecalis assessed as inhibition of bacterial growth; assay type: functional
Enterococcus faecalis [32] = assay: Antibiofilm activity against Enterococcus faecalis assessed as fold reduction in epbOX gene expression at 25 uM incubated for 6 hrs by qRT-PCR analysis; assay type: functional
Enterococcus faecalis [33] = assay: Antibiofilm activity against Enterococcus faecalis assessed as fold reduction in fsrB gene expression at 25 uM incubated for 6 hrs by qRT-PCR analysis; assay type: functional
Enterococcus faecalis [34] = assay: Antibiofilm activity against Enterococcus faecalis assessed as fold reduction in gelE gene expression at 25 uM incubated for 6 hrs by qRT-PCR analysis; assay type: functional
Enterococcus faecalis [35] = assay: Binding affinity to Enterococcus faecalis FB-1 YycG assessed as slow association and rapid dissociation measured by Octet RED96 response assay
Enterococcus faecalis [36] = assay: Bactericidal activity against Enterococcus faecalis OG1RF assessed as reductions in colony forming unit in presence of vancomycin after 24 hrs by time-killing assay; assay type: functional, organism-based
Enterococcus faecalis [37] = assay: Bactericidal activity against Enterococcus faecalis OG1RF assessed as reductions in colony forming unit in presence of vancomycin within 3 hrs by time-killing assay; assay type: functional, organism-based
Enterococcus faecalis [38] = assay: Antibacterial activity against clinical strain linozelid-resistant Enterococcus faecalis assessed as inhibition of bacterial growth; assay type: functional
Enterococcus faecalis [39] = assay: Bactericidal activity against Enterococcus faecalis OG1RF assessed as reductions in colony forming unit in presence of linezolid within 3 hrs by time-killing assay; assay type: functional, organism-based

O=C(O)COc1ccc(/C=C2/SC(=O)N(Cc3ccc(F)cc3)C2=O)cc1Br
MIC (Enterococcus faecium): > 200 µM
MIC (Enterococcus faecalis [1]): > 200 µM
pIC50 [2]: 4.56
MIC (Enterococcus faecalis [3]): > 200 µM
Activity (Enterococcus faecalis [4]): Dose-Dependent Effect
MIC (Enterococcus faecalis [5]): > 200 µM
MIC [6]: > 200 µM
MIC (Enterococcus faecalis [7]): > 200 µM
Activity (Enterococcus faecalis [8]): inactive
MIC (Staphylococcus aureus [9]): > 200 µM
CC50 [10]: > 200 µM
MIC (Escherichia coli): > 200 µM
hemolysis at 1 h, 50 µM [11]: 8.36%
Activity (Enterococcus faecalis [12]): inactive
MIC (Staphylococcus aureus [13]): > 200 µM
inhibition at 100 µM (Enterococcus faecalis [14]): 83.5%
MIC (Streptococcus agalactiae): > 200 µM
MBC (Enterococcus faecalis [15]): > 200 µM
hemolysis at 1 h, 200 µM [16]: 22.7%
Activity (Enterococcus faecalis [17]): Active
MIC [18]: > 200 µM

CCCCCCCCCC(=O)N[C@@H](Cc1c[nH]c2ccccc12)C(=O)N[C@H](CC(N)=O)C(=O)N[C@@H](CC(=O)O)C(=O)N[C@@H]1C(=O)NCC(=O)N[C@@H](CCCN)C(=O)N[C@@H](CC(=O)O)C(=O)N[C@H](C)C(=O)N[C@@H](CC(=O)O)C(=O)NCC(=O)N[C@H](CO)C(=O)N[C@@H]([C@H](C)CC(=O)O)C(=O)N[C@@H](CC(=O)c2ccccc2N)C(=O)O[C@@H]1C
Activity (Enterococcus faecalis [19]): 8.45%

O=C(C1=C(O)C(=O)N(c2nnc(SCc3ccc(Cl)cc3)s2)C1c1cccc(O)c1)c1cc2ccccc2o1 (centres undefined)
pIC50 [2]: 5.08
MIC (Enterococcus faecalis [3]): > 200 µM
Activity (Enterococcus faecalis [4]): Dose-Dependent Effect
Activity (Enterococcus faecalis [8]): inactive
CC50 [10]: > 200 µM
hemolysis at 1 h, 50 µM [11]: 6.26%
inhibition at 100 µM (Enterococcus faecalis [14]): 72%
Activity (Enterococcus faecalis [19]): 27.79%
MBC (Enterococcus faecalis [15]): > 200 µM
hemolysis at 1 h, 200 µM [16]: 7.81%

CCOC(=O)c1c(CN2CCN(C)CC2)n(-c2ccccc2)c2ccc(OS(=O)(=O)c3ccc(C)cc3)cc12
MIC (Enterococcus faecium): 25 µM (≈ 13.7 µg/mL)
MIC (Enterococcus faecalis [1]): 25 µM (≈ 13.7 µg/mL)
OD (Enterococcus faecalis [20]): 0.186
pIC50 [2]: 4.37
Activity (Enterococcus faecalis [21]): Active
MIC (Enterococcus faecalis [3]): 25 µM (≈ 13.7 µg/mL)
Activity (Enterococcus faecalis [4]): Dose-Dependent Effect
MIC (Enterococcus faecalis [5]): 25 µM (≈ 13.7 µg/mL)
MIC [6]: 12.5 µM (≈ 6.85 µg/mL)
fold change (FC) (Enterococcus faecalis [22]): 20
fold change (FC) (Enterococcus faecalis [23]): 2
fold change (FC) (Enterococcus faecalis [24]): 3
MIC (Enterococcus faecalis [7]): 50 µM (≈ 27.4 µg/mL)
MIC (Staphylococcus aureus [9]): 12.5 µM (≈ 6.85 µg/mL)
CC50 [10]: > 200 µM
fold change (FC) (Enterococcus faecalis [25]): 2
MIC (Escherichia coli): > 200 µM
Activity (Enterococcus faecalis [26]): Active
hemolysis at 1 h, 50 µM [11]: 24.1%
Activity (Enterococcus faecalis [12]): inactive
MIC (Staphylococcus aureus [13]): 12.5 µM (≈ 6.85 µg/mL)
Activity (Enterococcus faecalis [27]): Active
Activity (Enterococcus faecalis [28]): 74.8%
MIC (Enterococcus faecalis [29]): 25 µM (≈ 13.7 µg/mL)
fold change (FC) (Enterococcus faecalis [30]): 4
MIC50 (Enterococcus faecalis [31]): 50 µM (≈ 27.4 µg/mL)
fold change (FC) (Enterococcus faecalis [32]): 2
fold change (FC) (Enterococcus faecalis [33]): 2
fold change (FC) (Enterococcus faecalis [34]): 2
Activity (Enterococcus faecalis [35]): Active
inhibition at 100 µM (Enterococcus faecalis [14]): 96.2%
Activity (Enterococcus faecalis [19]): 18.29%
MIC (Streptococcus agalactiae): 12.5 µM (≈ 6.85 µg/mL)
MBC (Enterococcus faecalis [15]): 100 µM (≈ 54.8 µg/mL)
hemolysis at 1 h, 200 µM [16]: 28.2%
Activity (Enterococcus faecalis [17]): Active
Activity (Enterococcus faecalis [36]): Active
MIC [18]: 12.5 µM (≈ 6.85 µg/mL)
Activity (Enterococcus faecalis [37]): Active
MIC90 (Enterococcus faecalis [38]): 100 µM (≈ 54.8 µg/mL)
Activity (Enterococcus faecalis [39]): Active

CC1(C)S[C@@H]2[C@H](NC(=O)[C@H](N)c3ccccc3)C(=O)N2[C@H]1C(=O)O [AMPICILLIN]
Activity (Enterococcus faecalis [19]): 24.46%
